The values that follow come from patent publication US20120129842A1, “BISTHIAZOLE INHIBITORS OF PRO-MATRIX METALLOPROTEINASE ACTIVATION” (priority 2010, published 2012).

What is called pKd is −log10 of the Kd, conventionally taken in molar units. Read a low pKd as a large Kd. For orientation: pIC50 means the negative decadic logarithm of the IC50, by convention in mol/L. A low value points to a large IC50.

For assay [1], the target named is T1, proMMP9(20-445;ΔFnII) (SEQ ID NO:6) (Homo sapiens, UniProt P14780, DEL216-390).
T1 construct: start methionine (N); made in house; host or cells: E. coli BL21(DE3) RIL
T1 sequence (P14780 with tags, fused parts or gaps DEL216-390): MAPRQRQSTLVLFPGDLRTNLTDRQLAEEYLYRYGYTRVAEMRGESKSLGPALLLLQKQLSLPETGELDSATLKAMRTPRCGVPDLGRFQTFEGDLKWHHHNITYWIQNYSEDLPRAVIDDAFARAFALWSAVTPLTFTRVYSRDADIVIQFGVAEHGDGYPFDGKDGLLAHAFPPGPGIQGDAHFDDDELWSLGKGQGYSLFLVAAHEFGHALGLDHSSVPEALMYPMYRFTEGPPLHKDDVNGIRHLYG
Put plainly: ThermoFluor binding assay with proMMP9(20-445;ΔFnII). As to conditions: pH 7.0. As to the method:
(§1) The ThermoFluor® (TF) assay is a 384-well plate-based binding assay that measures thermal stability of proteins (Biomol Screen 2001, 6, 429-40; Biochemistry 2005, 44, 5258-66). The experiments were carried out using instruments available from Johnson & Johnson Pharmaceutical Research & Development, LLC. TF dye used in all experiments was […] (1,8-ANS) (Invitrogen: A-47).
(§2) Compounds were arranged in a pre-dispensed plate (Greiner Bio-one: 781280), wherein compounds were serially diluted in 100% DMSO across 11 columns within a series. Columns 12 and 24 were used as DMSO reference and contained no compound. For multiple compound concentration-response experiments, the compound aliquots ([…]) were robotically predispensed directly into black 384-well polypropylene PCR microplates (Abgene: TF-0384/k) using a Cartesian Hummingbird liquid handler (DigiLab, Holliston, Mass.). Following compound dispense, protein and dye solutions were added to achieve the final assay volume of 3 μL. The assay solutions were overlayed with 1 μL of silicone oil (Fluka, type DC 200: 85411) to prevent evaporation.
(§3) Assay plates were robotically loaded onto a thermostatically controlled PCR-type thermal block and then heated from 40 to 90° C. at a ramp-rate of 1° C./min for all experiments. Fluorescence was measured by continuous illumination with UV light (Hamamatsu LC6) supplied via fiber optics and filtered through a band-pass filter (380-400 nm; >6 OD cutoff). Fluorescence emission of the entire 384-well plate was detected by measuring light intensity using a CCD camera (Sensys, Roper Scientific) filtered to detect 500±25 nm, resulting in simultaneous and independent readings of all 384 wells. A single image with 20-sec exposure time was collected at each temperature, and the sum of the pixel intensity in a given area of the assay plate was recorded vs temperature and fit to standard equations to yield the Tm (J Biomol Screen 2001, 6, 429-40).
(§4) Thermodynamic parameters necessary for fitting compound binding for each proMMP were estimated by differential scanning calorimetry (DSC) and from ThermoFluor® data. The heat capacity of unfolding for each protein was estimated from the molecular weight and from ThermoFluor® dosing data.
The protein sample preparations included a desalting buffer exchange step via a PD-10 gravity column (GE Healthcare). The desalting buffer exchange was performed prior to diluting the protein to the final assay concentration of 2.8 μM proMMP9(20-445;ΔFnII) (SEQ ID NO:6). The concentration of proMMP9(20-445;ΔFnII) (SEQ ID NO:6) was determined spectrophotometrically based on a calculated extinction coefficient of ε280=39880 M^−cm^−1, a calculated molecular weight of 28.2 kDa, and calculated pI of 5.5. ThermoFluor® reference conditions were define as follows: 80 μg/mL (2.8 μM) proMMP9(20-445;ΔFnII) (SEQ ID NO:6), 50 μM 1,8-ANS, pH 7.0 Buffer (50 mM HEPES pH 7.0, 100 mM NaCl, 0.001% Tween-20, 2.5 mM MgCl2, 300 μM CaCl2). The thermodynamic parameters for proMMP9(20-445;ΔFnII) (SEQ ID NO:6) are as follows: Tm (° C.)=72 (+/−0.1), ΔUH(Tm) (cal mol^−1)=160000(+/−5000), ΔUS(Tm) (cal mol^−1 K^−1)=434, ΔUCp (cal mol^−1 K^−)=2400.

Assay [2] concerns the target T2, proMMP9(67-444;ΔFnII) (SEQ ID NO:5) (Homo sapiens, UniProt P14780, DEL216-390).
T2 construct: start methionine (N); made in house; host or cells: E. coli BL21(DE3) RIL
T2 sequence (P14780 with tags, fused parts or gaps DEL216-390): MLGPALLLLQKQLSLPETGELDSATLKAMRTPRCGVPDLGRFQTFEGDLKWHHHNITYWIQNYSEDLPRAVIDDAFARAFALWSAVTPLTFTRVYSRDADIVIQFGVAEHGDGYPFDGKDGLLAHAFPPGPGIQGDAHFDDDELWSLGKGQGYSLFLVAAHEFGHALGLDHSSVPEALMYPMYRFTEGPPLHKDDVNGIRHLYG
In words: ThermoFluor binding assay with proMMP9(67-444;ΔFnII). To be noted: pH 7.0. As to the method:
as §1, §2, §3, §4
The protein sample preparations had to include a desalting buffer exchange step via a PD-10 gravity column (GE Healthcare). The desalting buffer exchange was performed prior to diluting the protein to the final assay concentration of 3.5 μM proMMP9(67-444;ΔFnII) (SEQ ID NO:5). The concentration of proMMP9(67-444;ΔFnII) (SEQ ID NO:5) was determined spectrophotometrically based on a calculated extinction coefficient of ε280=33900 M^−1cm^−1, a calculated molecular weight of 22.6 kDa, and calculated pI of 5.20. ThermoFluor® reference conditions were defined as follows: 80 μg/mL (3.5 μM) proMMP9(67-444;ΔFnII) (SEQ ID NO:5), 50 μM 1,8-ANS, pH 7.0 Buffer (50 mM HEPES pH 7.0, 100 mM NaCl, 0.001% Tween-20, 2.5 mM MgCl2, 300 μM CaCl2). The thermodynamic parameters for proMMP9(67-444;ΔFnII) (SEQ ID NO:5) are as follows: Tm (° C.)=63 (+/−0.1), ΔUH(Tm) (cal mol^−1)=105000(+/−5000), ΔUS(Tm) (cal mol^−1 K^−1)=[…], ΔUCp (cal mol^−1 K^−1)=2000.

The target in assay [3] is T3, full-length proMMP9(1-707) (SEQ ID NO:1) (Homo sapiens, UniProt P14780, R574P).
T3 construct: made in house; host or cells: HEK293 (proMMP9, secreted); E. coli (MMP3)
Put plainly: proMMP9/MMP3 P126 Activation Assay. The assay is classed as biochemical. As to conditions: 20 nM proMMP9, 20 nM MMP3, 80 min 37° C. As for the experimental part: The reaction volume was 50 μL. […] Reactivity of residual MMP3 towards P-126 substrate was minimal under these conditions.

pIC50, pKd: −log10 of the molar value. Where a name gives a salt, the structure may show the parent alone.

T3 sequence (P14780 20-707 R574P): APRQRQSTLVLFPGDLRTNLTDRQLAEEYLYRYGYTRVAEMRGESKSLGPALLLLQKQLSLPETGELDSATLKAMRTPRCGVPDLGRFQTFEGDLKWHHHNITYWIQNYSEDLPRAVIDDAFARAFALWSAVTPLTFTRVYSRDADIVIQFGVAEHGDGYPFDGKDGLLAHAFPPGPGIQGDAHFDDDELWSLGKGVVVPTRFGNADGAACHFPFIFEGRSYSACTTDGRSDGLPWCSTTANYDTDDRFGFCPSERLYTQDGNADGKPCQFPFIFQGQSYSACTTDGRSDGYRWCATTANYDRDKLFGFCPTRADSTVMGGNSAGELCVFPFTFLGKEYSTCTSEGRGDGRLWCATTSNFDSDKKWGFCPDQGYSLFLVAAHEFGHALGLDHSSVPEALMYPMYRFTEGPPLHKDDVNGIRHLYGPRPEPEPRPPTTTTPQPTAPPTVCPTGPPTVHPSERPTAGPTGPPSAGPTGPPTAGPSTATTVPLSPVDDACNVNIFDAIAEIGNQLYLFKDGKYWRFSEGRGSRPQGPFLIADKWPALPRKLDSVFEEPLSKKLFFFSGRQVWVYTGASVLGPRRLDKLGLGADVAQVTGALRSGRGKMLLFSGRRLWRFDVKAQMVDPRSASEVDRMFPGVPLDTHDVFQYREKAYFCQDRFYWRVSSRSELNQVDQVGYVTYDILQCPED

`CCC(C)Oc1ccc(C(N)=O)cc1Nc1nc(-c2sc(C)nc2C)cs1` (racemic) [Example 14, (±)-4-sec-Butoxy-3-(2′,4′-dimethyl-[4,5′]bithiazolyl-2-ylamino)-benzamide.TFA]: the results for the pKd in assay [1] and in assay [2] were 6.24 and 5.15, respectively. The compound also gave a pIC50 in assay [3] of 5.33.

`CC(=O)Nc1nc(C)c(-c2csc(Nc3cccc4cc(C)oc34)n2)s1` [Example 9, N-[4′-Methyl-2-(2-methyl-benzofuran-7-ylamino)-[4,5′]bithiazolyl-2′-yl]-acetamide] had a pIC50 in assay [3] of 5.44.

In the case of `CC(=O)Nc1nc(C)c(-c2csc(Nc3cccc4c3OC(F)(F)O4)n2)s1` [Example 10, N-[2-(2,2-Difluoro-benzo[1,3]dioxol-4-ylamino)-4′-methyl-[4,5′]bithiazolyl-2′-yl]-acetamide], in assay [3], the pIC50 is 5.25.

Consider `Cc1nc(C)c(-c2csc(Nc3cc(C(N)=O)ccc3OC(C)(C)C)n2)s1` [Example 12, 4-tert-Butoxy-3-(2′,4′-dimethyl-[4,5′]bithiazolyl-2-ylamino)-benzamide], for which the pKd in assay [1] was 5.72; in assay [2], 4.82. This compound showed a pIC50 in assay [3] of 5.60.

Turning to `Cc1nc(C)c(-c2csc(Nc3cc(C(N)=O)ccc3OCC(F)(F)F)n2)s1` [Example 16, 3-(2′,4′-Dimethyl-[4,5′]bithiazolyl-2-ylamino)-4-(2,2,2-trifluoro-ethoxy)-benzamide], the pKd is 6.62 in assay [1] and 5.68 in assay [2]. The pIC50 in assay [3] is 5.89.

For `CCN(CC)S(=O)(=O)c1ccc(OC)c(Nc2nc(-c3sc(NC(C)=O)nc3C)cs2)c1` [Example 20, N-[2-(5-Diethylsulfamoyl-2-methoxy-phenylamino)-4′-methyl-[4,5]bithiazolyl-2′-yl]-acetamide], the pKd is 4.68 in assay [1] and 5.17 in assay [2].

With `COc1ccc(C(F)(F)F)cc1Nc1nc(-c2sc(N)nc2C)cs1` [Example 22, N^2-(2-Methoxy-5-trifluoromethyl-phenyl)-4′-methyl-[4,5′]bithiazolyl-2,2′-diamine.HBr], the negative logarithm of the Kd (pKd) in assay [1] was 5.19; in assay [2] it was 5.80.

For the compound `COc1ccc(C(N)=O)cc1Nc1nc(-c2cnc(N)s2)cs1` [Example 27, 3-(2′-Amino-[4,5′]bithiazolyl-2-ylamino)-4-methoxy-benzamide.HBr], the pKd in assay [1] is 6.00; in assay [2], 5.55. Moreover, in assay [3], the pIC50 is 5.28.

For the compound `COc1cc(C(N)=O)ccc1Nc1nc(-c2sc(C)nc2C)cs1` [Example 35, 4-(2′,4′-Dimethyl-[4,5′]bithiazolyl-2-ylamino)-3-methoxy-benzamide], the negative-log Kd (pKd) in assay [1] is 4.85; in assay [2], 5.41.

For `COc1cc(C)c(C(N)=O)cc1Nc1nc(-c2sc(N3CCN(C)CC3)nc2C)cs1` [Example 37, 4-Methoxy-2-methyl-5-[4′-methyl-2′-(4-methyl-piperazin-1-yl)-[4,5]bithiazolyl-2-ylamino]-benzamide.HCl], the pKd in assay [1] was 6.24; in assay [2], 5.14. This compound also had a pIC50 in assay [3] of 5.44.

On to `Cc1nc(C)c(-c2csc(Nc3cc(C(N)=O)ccc3CC(C)C)n2)s1` [Example 38, 3-(2′,4′-Dimethyl-[4,5′]bithiazolyl-2-ylamino)-4-isobutyl-benzamide.TFA], for which the pKd in assay [1] was 6.26. The pIC50 in assay [3] was 6.10.

Consider `COc1cc(Nc2nc(-c3sc(C)nc3C)cs2)c2ncccc2c1` [Example 41, (2′,4′-Dimethyl-[4,5′]bithiazolyl-2-yl)-(6-methoxy-quinolin-8-yl)-amine.TFA], for which the pKd was 4.08 in assay [1] and 4.21 in assay [2]. Besides, in assay [3], the pIC50 was ~4.89.

Turning to `Cc1nc(C)c(-c2csc(Nc3cccc4cccnc34)n2)s1` [Example 42, (2′,4′-Dimethyl-[4,5′]bithiazolyl-2-yl)-quinolin-8-yl-amine.TFA], the results for the pKd in assay [1] and in assay [2] were < 4.02 and 4.28, respectively. The compound also showed a pIC50 in assay [3] of 5.04.

As to `COc1ccc(S(N)(=O)=O)cc1Nc1nc(-c2sc(N)nc2C)cs1` [Example 52, 3-(2′-Amino-4′-methyl-[4,5′]bithiazolyl-2-ylamino)-4-methoxy-benzenesulfonamide.HBr], the figures for the pKd in assay [1] and in assay [2] were 6.06 and 5.80, respectively. Also, the pIC50 in assay [3] is 5.92.

`COc1ccc(S(N)(=O)=O)cc1Nc1nc(-c2sc(NC(C)=O)nc2C)cs1` [Example 53, N-[2-(2-Methoxy-5-sulfamoyl-phenylamino)-4′-methyl-[4,5′]bithiazolyl-2′-yl]-acetamide.HBr]: the pKd in assay [1] is 5.82; in assay [2], 5.92. In assay [3], this compound gave a pIC50 of 5.72.

For the compound `COc1ccc(C(=O)NCc2ccccc2)cc1Nc1nc(-c2sc(N)nc2C)cs1` [Example 56, 3-(2′-Amino-4′-methyl-[4,5′]bithiazolyl-2-ylamino)-N-benzyl-4-methoxy-benzamide.TFA], the negative logarithm of the Kd (pKd) in assay [1] is 5.89; in assay [2], 5.64. For the same compound, the pIC50 in assay [3] was 4.92.

In the case of `COc1ccc([N+](=O)[O-])cc1Nc1nc(-c2sc(N)nc2C)cs1` [Example 67, N^2-(2-Methoxy-5-nitro-phenyl)-4′-methyl-[4,5′]bithiazolyl-2,2′-diamine.HBr], the pKd in assay [1] is 6.25; in assay [2] it was 7.06. In assay [3], the pIC50 was 6.35.

In assay [3], `Cc1nc(C2CCN(C)CC2)sc1-c1csc(Nc2cc(S(N)(=O)=O)ccc2OC(C)C)n1` [Example 156, 4-Isopropoxy-3-((4′-methyl-2′-(1-methylpiperidin-4-yl)-[4,5′-bithiazol]-2-yl)amino)benzenesulfonamide.TFA] gave a pIC50 of 7.17.

As to `CCOc1ccncc1Nc1nc(-c2sc(C3CCN(C)CC3)nc2C)cs1` [Example 158, N-(4-Ethoxypyridin-3-yl)-4′-methyl-2′-(1-methylpiperidin-4-yl)-[4,5′-bithiazol]-2-amine.TFA], the pIC50 in assay [3] is 6.54.
